One molecule from patent US20240252657A1, “HEMTAC SMALL-MOLECULE DEGRADATION AGENT AND APPLICATION THEREOF” (SHANDONG UNIVERSITY, priority 2022, published 2024) can be followed below.

In data set [1] the target is T1, CDK6 (Mus musculus, UniProt Q64261).
T1 construct: degradation of CDK4 and CDK6 in B16F10 cells; endogenous in cells; host or cells: B16F10
Briefly: Western blot, CDK6 degradation in B16F10 cells. It is filed as cell-based. The conditions noted are these: read-out: DC50 (drug concentration leading to 50% protein degradation) of CDK6. As to the method:
(§1) After B16F10 cells were treated with the compound at different concentrations and for different periods of time, the levels of CDK4 and CDK6 proteins in the cells were measured by Western blot. Firstly, intracellular proteins were extracted and quantified. The cells were lysed with RIPA cell lysate (with a protease inhibitor), and proteins were collected, which were quantified by a BCA protein quantitative determination kit and quantified to the same concentration. Protein denaturation: The proteins were placed in a water bath at 100° C. for 8 minutes to denature the proteins. Loading and gel electrophoresis: The loading amount per cell was generally 20 μL. […] Membrane transfer: The membrane transfer was carried out using a wet transfer instrument, at a constant current of 250 mA for 90 minutes. The PVDF membrane should be soaked with methanol beforehand. Blocking: The PVDF membrane was placed in BSA blocking buffer for 1 h (with slow shaking in a shaker). Incubation with primary antibody: The primary antibody was diluted according to the instructions. The primary antibody was added, followed by incubation overnight at 4° C. Membrane washing: The membrane was washed with TBST washing buffer for 3 times, each time for 10 minutes. Incubation with secondary antibody: The second antibody was added, followed by incubation in a shaker at room temperature for 1 h. […]
(In general: Immunoblotting shows a protein as a band on a membrane.)

The test system of data set [2] is CDK4/6. Briefly: Western blot, CDK4/6 protein level in B16F10 cells. It is filed as cell-based, mouse. As for the experimental part:
as §1

The subject of data set [3] is mouse B16F10 melanoma. Briefly: Anti-tumor experiment in mice in vivo, B16F10 melanoma xenograft model. As to the method: B16F10 cells (10^6 cells/mouse) were injected subcutaneously into the forelimb of C57BL/6 mice to establish an xenograft model of mouse B16F10 melanoma. When the tumor volume reached 100-200 mm^3, the mice were randomly divided into four groups (n=6). The compound was injected intraperitoneally every day for two weeks, and the body weights and tumor volumes of the mice were measured every two days. The tumor length and width were measured along two orthogonal axes with a vernier caliper, and the tumor volume in the mouse was calculated based on an equation V (mm^3)=(length×width^2)/2.

In data set [4] the target is T2, CDK4 (Mus musculus, UniProt P30285).
T2 construct: degradation of CDK4 and CDK6 in B16F10 cells; endogenous in cells; host or cells: B16F10
T2 sequence (P30285 1-303): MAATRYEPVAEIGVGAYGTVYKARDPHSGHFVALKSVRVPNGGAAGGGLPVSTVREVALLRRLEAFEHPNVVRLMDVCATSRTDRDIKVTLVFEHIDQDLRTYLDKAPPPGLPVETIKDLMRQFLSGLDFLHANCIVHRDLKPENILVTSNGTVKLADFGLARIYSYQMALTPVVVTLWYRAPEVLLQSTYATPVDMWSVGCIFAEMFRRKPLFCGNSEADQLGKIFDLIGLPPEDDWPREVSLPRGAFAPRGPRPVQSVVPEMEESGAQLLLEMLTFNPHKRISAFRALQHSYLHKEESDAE
Briefly: Western blot, CDK4 degradation in B16F10 cells. Format: cell-based. The conditions noted are these: read-out: DC50 (drug concentration leading to 50% protein degradation) of CDK4. As for the experimental part: as §1

Structures are written as SMILES.

T1 sequence (Q64261 whole entry): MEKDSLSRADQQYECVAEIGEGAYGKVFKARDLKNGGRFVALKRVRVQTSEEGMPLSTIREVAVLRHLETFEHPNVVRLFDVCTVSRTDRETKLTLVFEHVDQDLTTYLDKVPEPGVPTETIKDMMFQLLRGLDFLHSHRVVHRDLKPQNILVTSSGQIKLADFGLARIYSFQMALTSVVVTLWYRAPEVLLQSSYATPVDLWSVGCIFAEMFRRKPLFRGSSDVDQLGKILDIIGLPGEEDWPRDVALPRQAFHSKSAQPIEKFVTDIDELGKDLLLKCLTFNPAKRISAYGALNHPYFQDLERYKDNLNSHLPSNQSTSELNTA

Regarding `COc1c(C)cnc(Cn2cc(C#CCCn3cc(CNC(=O)CN4CCN(c5ccc(Nc6ncc7c(C)c(C(C)=O)c(=O)n(C8CCCC8)c7n6)nc5)CC4)nn3)c3c(Cl)nc(N)nc32)c1C` [Compound 26], the DC50 in data set [1] is approximately 0.019 µM; in data set [4], approximately 0.026 µM. The “time within which degradation of CDK4/6 was induced” value in data set [2] (B16F10 cells, 0.5 μM) was not above 12 h. For the same molecule, the “degradation activity (rank among the HEMTACs)” value in data set [2] (B16F10 melanoma cells, 24 h) is given as “highest degradation activity”. Moreover, in data set [3] (20 mg/kg, intraperitoneally every day for two weeks), the “anti-tumor effect compared with BIIB021 (20 mg/kg)” value is “better than that of HSP90 inhibitor BIIB021”. The growth of melanoma entry in data set [3] (40 mg/kg, intraperitoneally every day for two weeks) is “significantly inhibit the growth of melanoma”. Also, the “other signs of toxicity” value in data set [3] (all treatment groups) was “no other signs of toxicity”. Besides, the “body weight of mice” value in data set [3] (intraperitoneally every day for two weeks) is listed as “slight weight loss”. Besides, the “anti-melanoma effect in vivo” value in data set [3] (mouse B16F10 melanoma model, FIG. 4 legend, no dose given) was “significant anti-melanoma effect”.
